According to US20060148760A1, “Method for the sysnthesis of compounds of formula I and their uses thereof” (TransTech Pharma, priority 2000, published 2006):
Counter-ions that a name gives are not always drawn.

Columns and labels:
[1] = target: T1, Carboxymethyl Lysine (CML)/RAGE interaction (Homo sapiens, UniProt Q15109); test: ELISA assay, CML binding to sRAGE; conditions: plate-bound CML
T1 construct: generate soluble RAGE (sRAGE) comprised of the V and C domains
Protocol: (§1) S100b, β-amyloid and CML (500 ng/100 μL/well) in 100 mM sodium bicarbonate/sodium carbonate buffer (pH 9.8) is loaded onto the wells of a NUNC Maxisorp flat bottom 96—well microtitre plate. The plate is incubated at 4° C. overnight. The wells are aspirated and treated with 50 mM imidazole buffer saline (pH 7.2) (with 1 mM CaCl2/MgCl2) containing 1% bovine serum albumin (BSA) (300 μL/well) for two h at 37° C.
(§2) Test compounds are dissolved in nanopure water (concentration: 10-100 μM). DMSO may be used as co-solvent. 25 μL of test compound solution in 2% DMSO is added, along with 75 μL sRAGE (4.0×10^−4 mg/mL FAC) to each well and samples are incubated for 1 h at 37° C. The wells are washed 3 times with 155 mM NaCl pH 7.2 buffer saline and are soaked 10 seconds between each wash. Non-radioactive binding is performed by adding:
(§3) 10 μL Biotinylated goat F(ab′)2 Anti-mouse IgG. (8.0×10^−4 mg/mL, FAC)
(§4) 10 μL Alk-phos-Sterptavidin (3×10^−3 mg/mL FAC)
(§5) 10 μL Polyclonal antibody for sRAGE (FAC 6.0×10^−3 mg/mL) to 5 mL 50 mM imidazole buffer saline (pH 7.2) containing 0.2% bovine serum albumin and 1 mM CaCl2. The mixture is incubated for 30 minutes at 37° C. 100 μL complex is added to each well and incubation is allowed to proceed at rt for 1 h. Wells are washed 3 times with wash buffer and soaked 10 s between each wash. 100 μL 1 mg/mL (pNPP) in 1 M diethanolamine (pH adjusted to 9.8 with HCl) is added. […] The reaction is quenched with 10 μL of stop solution (0.5 N NaOH in 50% ethanol) and the absorbance is measured spectrophotometrically with a microplate reader at 405 nm.

S-100b/RAGE interaction = target: T2, S-100b/RAGE interaction (Homo sapiens, UniProt Q15109); test: ELISA assay, S-100b binding to sRAGE; conditions: plate-bound S100b, concentration at which 50% signal is inhibited
T2 construct: generate soluble RAGE (sRAGE) comprised of the V and C domains
Protocol: as §1, §2, §3, §4, §5

[2] = target: T3, β-amyloid—RAGE interaction (Homo sapiens, UniProt Q15109); test: ELISA assay, β-amyloid binding to sRAGE; conditions: plate-bound β-amyloid
T3 construct: generate soluble RAGE (sRAGE) comprised of the V and C domains
Protocol: as §1, §2, §3, §4, §5

T3 sequence (Q15109 23-342 limits assumed): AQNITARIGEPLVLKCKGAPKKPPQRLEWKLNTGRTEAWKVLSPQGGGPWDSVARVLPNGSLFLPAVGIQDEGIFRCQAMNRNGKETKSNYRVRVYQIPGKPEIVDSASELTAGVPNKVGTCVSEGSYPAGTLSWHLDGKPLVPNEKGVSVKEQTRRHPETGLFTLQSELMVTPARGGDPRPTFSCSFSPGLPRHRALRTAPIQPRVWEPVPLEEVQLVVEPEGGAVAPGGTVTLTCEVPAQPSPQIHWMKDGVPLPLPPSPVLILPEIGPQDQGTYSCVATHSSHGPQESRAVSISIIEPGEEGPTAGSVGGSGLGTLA
T1 sequence (Q15109 23-342 limits assumed): as above
T2 sequence (Q15109 23-342 limits assumed): as above

Row | Compound | IC50 [1] | IC50 (S-100b/RAGE interaction) | IC50 [2]
1 | CCCCOc1cc(C(=O)OC)ccc1NC(=O)[C@H](N)Cc1ccc2ccccc2c1 [Example 2, (R)-3-(2-Naphthyl)-2-aminopropionic Acid 4-Methoxycarbonyl-2-butoxyaniline Amide Hydrochloride] | 3160 nM | 5100 nM | 
2 | CCCCOc1cc(C(=O)OCCN(CC)CC)ccc1NC(=O)[C@@H](Cc1ccc(OCc2ccccc2)cc1)NC(=O)OC(C)(C)C [Example 3, (R)-3-(4-Benzyloxyphenyl)-2-tert-butoxycarbonylaminopropionic Acid 4-Diethylaminoethoxycarbonyl-2-butoxyaniline Amide] | 1500 nM | 1320 nM | 1500 nM
3 | CCCCOc1cc(C(=O)OCCN(CC)CC)ccc1NC(=O)[C@H](N)Cc1ccc(OCc2ccccc2)cc1 [Example 4, (R)-3-(4-Benzyloxyphenyl)-2-aminopropionic Acid 4-Diethylaminoethoxycarbonyl-2-butoxyaniline Amide Dihydrochloride] | 1120 nM | 820 nM | 2200 nM
4 | CCCCOc1cc(C(=O)OCCN(CC)CC)ccc1NC(=O)[C@@H](Cc1ccc2ccccc2c1)NC [Example 5, (R)-3-(2-Naphthyl)-2-methylaminopropionic Acid 4-Diethylaminoethoxycarbonyl-2-butoxyaniline Amide Dihydrochloride] | 1270 nM | 2880 nM | 1810 nM
5 | COC(=O)c1ccc(NC(=O)[C@@H](Cc2ccc(OCc3ccccc3)cc2)NC(=O)OC(C)(C)C)c(O)c1 [Example 6, (R)-3-(4-Benzyloxyphenyl)-2-tert-butoxycarbonylaminopropionic Acid 4-Methoxycarbonyl-2-hydroxyaniline Amide] |  | 6300 nM | 
6 | CC(C)(C)OC(=O)N[C@H](Cc1ccc(OCc2ccccc2)cc1)C(=O)Nc1ccc(C(=O)OC(C)(C)C)cc1OC(C)(C)C [Example 7, (R)-3-(4-Benzyloxyphenyl)-2-tert-butoxycarbonylaminopropionic Acid 4-tert-Butoxycarbonyl-2-tert-butoxyaniline Amide] | 8000 nM | 1000 to 3000 nM | 
7 | CCN(CC)CCOC(=O)c1ccc(NC(=O)[C@@H](Cc2ccc(OCc3ccccc3)cc2)NC(=O)OC(C)(C)C)c(OCC(C)C)c1 [Example 8, (R)-3-(4-Benzyloxyphenyl)-2-tert-butoxycarbonylaminopropionic Acid 4-Diethylaminoethoxycarbonyl-2-isobutoxyaniline Amide] |  | 2000 nM | 
8 | CCN(CC)CCOC(=O)c1ccc(NC(=O)[C@H](N)Cc2ccc(OCc3ccccc3)cc2)c(OCC(C)C)c1 [Example 9, (R)-3-(4-Benzyloxyphenyl)-2-aminopropionic Acid 4-Diethylaminoethoxycarbonyl-2-isobutoxyaniline Amide Dihydrochloride] |  | 1600 nM | 
9 | CCCCOc1cc(C(=O)OCCN(CC)CC)ccc1NC(=O)[C@@H](Cc1ccccc1)NC(=O)OC(C)(C)C [Example 10, (R)-3-Phenyl-2-tert-butoxycarbonylaminopropionic Acid 4-Diethylaminoethoxycarbonyl-2-butoxyaniline Amide] |  | 950 nM | 
10 | CCCCOc1cc(C(=O)OCCN(CC)CC)ccc1NC(=O)[C@H](N)Cc1ccccc1 [Example 11, (R)-3-Phenyl-2-aminopropionic Acid 4-Diethylaminoethoxycarbonyl-2-butoxyaniline Amide Dihydrochloride] |  | 10000 to 30000 nM | 
11 | CCCCOc1cc(C(=O)OCCN(CC)CC)ccc1NC(=O)[C@@H](Cc1ccc(OCc2ccccc2)cc1)NC(C)C [Example 13, (R)-3-(4-Benzyloxyphenyl)-2-isopropylaminopropionic Acid 4-Diethylaminoethoxycarbonyl-2-butoxyaniline Amide] | 700 nM | 1000 nM | 1000 nM
12 | CCCCOc1cc(C(=O)OCCN(CC)CC)ccc1NC(=O)[C@@H](Cc1ccc(OCc2ccccc2)cc1)NCc1ccccc1 [Example 14, (R)-3-(4-Benzyloxyphenyl)-2-benzylaminopropionic Acid 4-Diethylaminoethoxycarbonyl-2-butoxyaniline Amide] |  | 2800 nM | 
13 | CCCCOc1cc(C(=O)OCCN(CC)CC)ccc1NC(=O)[C@@H](Cc1ccc(OCc2ccccc2)cc1)NS(C)(=O)=O [Example 15, (R)-3-(4-Benzyloxyphenyl)-2-methanesulfonylaminopropionic Acid 4-Diethylaminoethoxycarbonyl-2-butoxyaniline Amide] |  | 10000 to 30000 nM | 
14 | CCCCOc1cc(C(=O)OCCN(CC)CC)ccc1NC(=O)[C@@H](Cc1ccc(OCc2ccccc2)cc1)NS(=O)(=O)c1ccccc1 [Example 16, (R)-3-(4-Benzyloxyphenyl)-2-phenylsulfonylaminopropionic Acid 4-Diethylaminoethoxycarbonyl-2-butoxyaniline Amide] |  | 20000 to 30000 nM | 
15 | CCCCOc1cc(C(=O)OCCN(CC)CC)ccc1NC(=O)[C@@H](Cc1ccc(OCc2ccccc2)cc1)NC(=O)NCC [Example 17, (R)-3-(4-Benzyloxyphenyl)-2-ethylcarbamoylaminopropionic Acid 4-Diethylaminoethoxycarbonyl-2-butoxyaniline Amide] |  | 10000 nM | 
16 | CCCCOc1cc(C(=O)OCCN(CC)CC)ccc1NC(=O)[C@@H](Cc1ccc(OCc2ccccc2)cc1)NC(=O)NC(C)(C)C [Example 18, (R)-3-(4-Benzyloxyphenyl)-2-tert-butylcarbamoylaminopropionic Acid 4-Diethylaminoethoxycarbonyl-2-butoxyaniline Amide] | 840 nM | 2300 nM | 2000 nM
17 | CCN(CC)CCOc1ccc(NC(=O)[C@@H](Cc2ccc(OCc3ccccc3)cc2)NC(=O)OC(C)(C)C)c(OCCN(CC)CC)c1 [Example 19, (R)-3-(4-Benzyloxyphenyl)-2-tert-butoxycarbonylaminopropionic Acid 4-Diethylaminoethoxy-2-diethylaminoethoxyaniline Amide] | 800 nM | 1140 nM | 800 nM
18 | CCN(CC)CCCOc1ccc(NC(=O)[C@@H](Cc2ccc(OCc3ccccc3)cc2)NC(=O)OC(C)(C)C)c(OCCCN(CC)CC)c1 [Example 21, (R)-3-(4-Benzyloxyphenyl)-2-tert-butoxycarbonylaminopropionic Acid 4-(3-Diethylamino-1-propoxy)-2-(3-diethylamino-1-propoxy)aniline Amide] | 460 nM | 640 nM | 1230 nM
19 | CCN(CC)CCOC(=O)c1ccc(NC(=O)[C@@H](Cc2ccc(OCc3ccccc3)cc2)NC(=O)OC(C)(C)C)c(OCc2ccco2)c1 [Example 23, (R)-3-(4-Benzyloxyphenyl)-2-tert-butoxycarbonylaminopropionic Acid 4-Diethylaminoethoxycarbonyl-2-(2-furylmethoxy)aniline Amide] |  | 15500 nM | 
20 | CCN(CC)CCOC(=O)c1ccc(NC(=O)[C@H](N)Cc2ccc(OCc3ccccc3)cc2)c(OCc2ccco2)c1 [Example 24, (R)-3-(4-Benzyloxyphenyl)-2-aminopropionic Acid 4-Diethylaminoethoxycarbonyl)-2-(2-furylmethoxy)aniline Amide Dihydrochloride] |  | 2700 nM | 
21 | CCCCOc1cc(C(=O)OCCN(CC)CC)ccc1NC(=O)[C@@H](Cc1ccc2ccccc2c1)NC(C)=O [Example 25, (R)-3-(2-Naphthyl)-2-acetylaminopropionic Acid 4-Diethylaminoethoxycarbonyl-2-butoxyaniline Amide] |  | 15000 nM | 
22 | CCCCOc1cc(C(=O)OCCN(CC)CC)ccc1NC(=O)[C@@H](Cc1ccc(OCc2ccccc2)cc1)NC(C)=O [Example 26, (R)-3-(4-Benzyloxyphenyl)-2-acetylaminopropionic Acid 4-Diethylaminoethoxycarbonyl-2-butoxyaniline Amide] |  | 5600 nM | 
23 | (R)-3-(2-Naphthyl)-2-guanidinylpropionic Acid 4-Diethylaminoethoxycarbonyl-2-butoxyaniline Amide Dihydrochloride [Example 12] | 700 nM | 300 to 1000 nM | 5000 nM
24 | (R)-3-(4-Benzyloxyphenyl)-2-aminopropionic Acid 4-(3-Diethylamino-1-propoxy)-2-(3-diethylamino-1-propoxyaniline Amide Trihydrochloride [Example 22] | 680 nM | 920 nM | 1730 nM
25 | (R)-3-(4-Benzyloxyphenyl)-2-aminopropionic Acid 4-Diethylaminoethoxy-2-diethylaminoethoxyaniline Amide Trihydrochloride [Example 20] | 1000 nM | 840 nM | 1000 nM
